The values below come from patent US10807957B2, “Tetradentate chelating monoquinoline derivative, manufacturing method thereof, and application of same as metal ion regulator for neurodegenerative disease” (GUANGDONG UNIVERSITY OF TECHNOLOGY, priority 2016, dated 2020).

The experiment is described as follows: Affinity constants for Cu2+ by competitive chelation with UV/Vis monitoring. Type of experiment: binding. Conditions: Cu2+ versus Zn2+, pH 7.4. The protocol:
Estimation of affinity constants of compounds of general formula (I) with metal ions: […]
Affinity Constants for Cu^2:
The following mother solutions were prepared: (A) ligand L=TDMQ-n, 300 μM in 20 mM Tris.HCl pH 7.4, 150 mM NaCl; (B) Competing ligands (namely NTA, EDTA, EDDA, EGTA, or CDTA), 300 μM in 20 mM Tris.HCl pH 7.4, 150 mM NaCl; (C) CuCl2, 15 mM in H2O. In the UV/Vis cuvette, 100 μL of (A), 100 μL of (B), 1800 μL of 20 mM Tris.HCl pH 7.4, 150 mM NaCl, and 2 μL of (C) were added in that order. The final concentrations of L, Competing ligand (LC), and Cu^2+ were 15 μM.
The spectrum of the ligand L (2 μL of H2O instead of 2 μL of (C)) was recorded according to above conditions; and the spectrum of [Cu^2+−L] (100 μL of 20 mM Tris.HCl pH 7.4, 150 mM NaCl, instead of 100 μL of (B)) was recorded according to above conditions. All ligands and complexes studied followed the Beer-Lambert law in the experimental conditions used.
The equations of complexation are as follows: […]
It can be deduced that at the equilibrium:
UV/Vis monitoring at 383 nm allowed to determine the absorbance of the competitive chelation mixture (Amix), the absorbance of L in the absence of Cu^2+ (AL), and the absorbance of CuL in the absence of competing ligand (ACu-L). The proportion of Cu^2+ chelated by L was calculated as x=(AL-Amix)/(AL-ACu-L). Experiments were performed in triplicate.

Each structure is given as a SMILES string.

As to `CN(C)CCCNCc1ccc2c(Cl)cc(Cl)c(N)c2n1` [TDMQ-19, N^1-((8-amino-5,7-dichloroquinolin-2-yl)methyl)-N^3,N3-dimehypropane-1,3-diamine], the “difference between binding constants for copper and zinc” value is recorded as 10 orders of magnitude.
Under `CN(C)CCNCCc1ccc2c(Cl)cc(Cl)c(N)c2n1` [TDMQ-20, N^1-(2-(8-amino-5,7-dichloroquinolin-2-yl)ethyl)-N^2,N^2-dimethylethane-1,2-diamine] stands 12 orders of magnitude.
